Experimental data from US6887873B2, “Triazine derivatives and their application as antitelomerase agents” (Aventis Pharma S.A., priority 2001, dated 2005).

What was measured:
A549 cells = test: Cytotoxic activity on human tumour line A549, neutral red, 96 hours; type: cell-based; conditions: Homo sapiens, A549, A549; read-out: Cytotox. A549 IC50
Procedure: The cytotoxic biological activity on human tumour lines is determined according to the following experimental protocol:
The human cell lines A549 are obtained from ATCC (American Type Culture Collection, Rockville, USA). The A549 cells are cultured in a layer in a culture flask in RPMI 1640 medium containing L-glutamine at 2 mM, penicillin 200 U/ml, streptomycin 200 μg/ml and supplemented with 10% heat-inactivated foetal calf serum. The KB cells are cultured in a layer in a culture flask in Dulbelco's medium containing L-glutamine at 2 mM, penicillin 200 U/ml, streptomycin 200 μg/ml and supplemented with 10% heat-inactivated foetal calf serum.
The cells at the exponential growth phase are trypsinized, washed in 1×PBS and are inoculated in 96-well microplates (Costar) in an amount of 4×10^4 cells/ml for A549 and of 1.5×10^4 cells/ml (0.2 ml/well) and then incubated for 96 hours in the presence of variable concentrations of product to be studied (10, 1, 0.1 and 0.01 μM, each point in quadruplicate). 16 hours before the end of the incubation, 0.02% final of neutral red is added to each well. At the end of the incubation, the cells are washed with 1×PBS and lysed with 1% sodium lauryl sulphate. The cellular incorporation of the dye, which reflects cellular growth, is evaluated by spectro-photometry at a wavelength of 540 nm for each sample with the aid of a Dynatech MR5000 reading apparatus.
For each compound concentration tested, the results are expressed as percentage of inhibition of cellular growth and calculated from the untreated control and the culture medium free of cells (blank) according to the following formula: (compound value−blank value/cell control value−blank value)×100.
The concentration of compound inducing a 50% inhibition of growth (IC50) is determined with the aid of a semilogarithmic graphical representation of the inhibition values obtained as a function of each of the compound concentrations tested.
A compound is considered to be active as cytotoxic agent if the concentration inhibiting the growth of the tumour cells tested by 50% is in particular less than 10 μM.

## Cc1cc(N(C)C)c2cc(Nc3nc(Nc4ccc5nc(C)cc(N(C)C)c5c4)nc(N4CCN(C)CC4)n3)ccc2n1 [Example 20, 2,4-bis(4-dimethylamino-2-methylquinolin-6-yl)amino-6-(4-methylpiperazin-1-yl)-[1,3,5]triazine]
A549 cells
  IC50: 350 nM
other
  melting point: 256 to 260 °C
